In patent publication US7985764B2, “Amide derivative or salt thereof” (Astellas Pharma Inc., priority 2006, dated 2011):
Structures can show the parent of a compound that is named as a salt.

Tests used:
[1] = target: T1, human 5-HT7 receptor (Homo sapiens, UniProt P34969); assay: 5-HT7 receptor binding test; details: human 5-HT7 receptor expressing CHO cell membrane; radio-ligand [3H] 5-HT
T1 construct: expressed in transfected cells; host or cells: CHO
Description: Test Method (2) 5-HT7 Receptor Binding Test (i) Preparation of Membrane Sample
Cultured human 5-HT7 receptor expressing CHO cells were washed with PBS(−). The cells were peeled off with a scraper in the presence of PBS(−), and the cells were recovered by centrifugation (1,000 rpm, 10 minutes, 4° C.). In the presence of 5 mM Tris-HCl (pH 7.4) buffer, homogenized using a homogenizer (registered trademark: Polytron (PTA 10-TS)), and centrifugation-treated (40,000×g, 10 minutes, 4° C.). In the presence of 50 mM Tris-HCl (pH 7.4) buffer, suspended using Glass-Teflon (registered trademark) homogenizer. By carrying out centrifugation treatment (40,000×g, 10 minutes, 4° C.), suspended in 50 mM Tris-HCl (pH 7.4) and stored at −80° C.
(§1) (ii) Receptor Binding Test
A total volume of 500 μl containing 50 mM Tris-HCl, a 4 mM CaCl2 (pH 7.4) buffer, a human 5-HT7 receptor expressing CHO cell membrane preparation and a radio-ligand [^3H] 5-HT (3.40 TBq/mmol) was incubated at 25° C. for 1 hour. The compound was dissolved in 100% DMSO and diluted to respective concentrations.
Binding quantity in the presence of 10 μM metergoline was regarded as the nonspecific binding, and a result of subtracting the nonspecific binding quantity from the total binding quantity was regarded as the specific binding quantity. After adding 4 ml of 50 mM Tris-HCl buffer (pH 7.4) and filtering under a reduced pressure using a GF/B glass filter, the filter was washed (4 ml×3) with the same buffer. By soaking the glass filter in 5 ml of a liquid scintillator (trade name: Aquasol-2), the radioactivity quantity was measured using a liquid scintillation counter.

[2] = target: T2, human 5-HT2B receptor (Homo sapiens, UniProt P41595); assay: 5-HT2B receptor binding test; details: human 5-HT2B receptor expressing HEK293-EBNA cell membrane; radio-ligand [3H] Mesulergine or [3H] Serotonin
T2 construct: expressed in transfected cells; host or cells: HEK293-EBNA
Description: Effects of the compound (I) of the present invention were verified by the following pharmacological tests. • Test Method (1) 5-HT2B Receptor Binding Test • (i) Preparation of Membrane Sample
Cultured human 5-HT2B receptor expressing HEK293-EBNA cells were washed with a phosphate buffer (PBS)(−). The cells were peeled off with a scraper in the presence of PBS(−), and the cells were recovered by centrifugation (1,000 rpm, 10 minutes, 4° C.). In the presence of 5 mM tris-hydrochloric acid (Tris-HCl) (pH 7.4) buffer, homogenized using a homogenizer (registered trademark: Polytron (PTA 10-TS)), and centrifugation-treated (40,000×g, 10 minutes, 4° C.). In the presence of 50 mM Tris-HCl (pH 7.4) buffer, suspended using Glass-Teflon (registered trademark) homogenizer. By carrying out centrifugation treatment (40,000×g, 10 minutes, 4° C.), suspended in 50 mM Tris-HCl (pH 7.4) and stored at −80° C.
as §1
A total volume of 500 μl containing 50 mM Tris-HCl, a 4 mM CaCl2 (pH 7.4) buffer, a human 5-HT2B receptor expressing HEK293-EBNA cell membrane preparation and a radio-ligand [^3H] Mesulergine (3.1 TBq/mmol;) or [^3H] Serotonin (5-Hydroxytryptamine) (3.7 TBq/mmol;) was incubated at 25° C. for 1 hour. The compound was dissolved in 100% dimethyl sulfoxide (DMSO) and diluted to respective concentrations. Binding quantity in the presence of 1 μM ritanserin was regarded as the nonspecific binding, and a result of subtracting the nonspecific binding quantity from the total binding quantity was regarded as the specific binding quantity. After adding 4 ml of 50 mM Tris-HCl buffer (pH 7.4) and filtering under a reduced pressure using a GF/B glass filter, the filter was washed (4 ml×3) with the same buffer. By soaking the glass filter in 5 ml of a liquid scintillator (trade name: Aquasol-2), the radioactivity quantity was measured using a liquid scintillation counter. […] Ex represents the Example compound number which is described later.

[3] = system: male Wistar rats; assay: Defecation suppressing effect at the time of restraint stress loading (rat restraint stress defecation model); assay type: in vivo; details: for dose from which a significant suppressing action (number of feces excreted) is shown: p.o.; for defecation-suppressing action: 10 mg/kg p.o., restraint stress loaded 30 minutes after the administration; for number of feces excreted, in comparison with the non-administration group: 1, 3 or 10 mg/kg administration group, N=10
Description: Test Method (4) Defecation Suppressing Effect at the Time of Restraint Stress Loading
The IBS-treating effect of the compound (I) of the present invention was evaluated using a test method in which the amount of excreted feces is measured by loading a restraint stress on rats (see “The Journal of Pharmacology Experimental Therapeutics”, (USA), 1992, vol. 261, p. 297-303).
The agent to be tested was administered to male Wistar rats (body weight 250 to 320 g, 10 animals for each group), and a restraint stress was loaded 30 minutes to 3 hours thereafter. A restraint cage (trade name: KN-468, 265 mm in width×95 mm in length×200 mm in height, Natsume Seisakusho, Tokyo) was used for the restraint stress loading, and the number of feces excreted during 1 hour after the stress loading was counted.

[4] = system: 5-HT2B receptor; details: versus 5-HT1A, 5-HT1B, 5-HT2A, 5-HT2C, 5-HT3, 5-HT6, 5-HT7, α1, M1, D2 and the like; cited from earlier work
[5] = restraint stress loaded 1 hour after the administration

T2 sequence (P41595 whole entry): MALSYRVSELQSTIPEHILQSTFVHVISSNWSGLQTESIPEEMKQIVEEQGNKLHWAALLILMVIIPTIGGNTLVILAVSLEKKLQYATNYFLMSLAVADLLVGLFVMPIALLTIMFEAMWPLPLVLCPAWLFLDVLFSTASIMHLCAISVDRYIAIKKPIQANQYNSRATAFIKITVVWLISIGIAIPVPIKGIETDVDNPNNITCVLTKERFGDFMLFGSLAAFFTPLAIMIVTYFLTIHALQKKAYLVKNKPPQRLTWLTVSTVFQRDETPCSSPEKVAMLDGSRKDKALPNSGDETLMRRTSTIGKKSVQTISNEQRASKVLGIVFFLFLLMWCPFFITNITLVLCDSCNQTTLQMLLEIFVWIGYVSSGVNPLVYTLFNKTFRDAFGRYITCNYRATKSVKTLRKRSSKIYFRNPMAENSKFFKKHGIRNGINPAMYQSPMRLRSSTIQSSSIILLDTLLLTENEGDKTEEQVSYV
T1 sequence (P34969 whole entry): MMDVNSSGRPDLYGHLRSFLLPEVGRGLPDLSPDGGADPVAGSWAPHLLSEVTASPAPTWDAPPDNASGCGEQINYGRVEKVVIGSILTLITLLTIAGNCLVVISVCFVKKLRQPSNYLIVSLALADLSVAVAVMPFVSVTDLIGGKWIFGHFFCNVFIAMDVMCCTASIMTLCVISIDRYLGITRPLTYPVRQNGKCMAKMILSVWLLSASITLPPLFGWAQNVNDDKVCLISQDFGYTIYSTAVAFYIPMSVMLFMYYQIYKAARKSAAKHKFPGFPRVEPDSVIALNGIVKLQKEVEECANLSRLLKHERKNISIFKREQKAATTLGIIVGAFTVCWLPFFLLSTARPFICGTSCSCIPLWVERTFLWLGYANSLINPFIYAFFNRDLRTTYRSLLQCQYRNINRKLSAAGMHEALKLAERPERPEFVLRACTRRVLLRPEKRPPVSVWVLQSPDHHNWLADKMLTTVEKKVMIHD

| Ki [1] | Ki [2] | SMILES | also measured |
| --- | --- | --- | --- |
| 0.66 nM | 0.24 nM | Cc1c(C)n(Cc2ccc(F)cc2)c2ccc(C(=O)N=C(N)N)cc12 [Example 24] | – |
| 1.3 nM | 0.12 nM | CCc1c(C)n(Cc2ccc(F)cc2)c2ccc(C(=O)N=C(N)N)cc12 [Example 103, N-(diaminomethylene)-3-ethyl-1-(4-fluorobenzyl)-2-methyl-1H-indole-5-carboxamide] | dose from which a significant suppressing action (number of feces excreted) is shown [3, 5]: ≥ 1 mg/kg |
| 3.4 nM | 3.4 nM | Cc1c(C)n(Cc2ccc(F)cc2)c2ccc(C(=O)NCCN(C)C)cc12 [Example 156] | – |
| 4.3 nM | 0.19 nM | CCc1c(C)n(Cc2ccc(F)cc2)c2ccc(C(=O)NCCN(C)C)cc12 [Example 226] | dose from which a significant suppressing action (number of feces excreted) is shown [3, 5]: ≥ 1 mg/kg |
| 2.6 nM | 0.29 nM | CCc1c(C)n(Cc2ccc(F)cc2)c2ccc(C(=O)N[C@H]3CCN(C)C3)cc12 [Example 236] | dose from which a significant suppressing action (number of feces excreted) is shown ([3]; restraint stress loaded 3 hours after the administration): ≥ 0.3 mg/kg |
| 4.9 nM | 0.22 nM | CCc1c(CC)n(Cc2ccc(F)cc2)c2ccc(C(=O)N[C@H]3CCN(C)C3)cc12 [Example 237] | – |
| 8 nM | 0.24 nM | CCc1c(C)n(Cc2ccc(F)cc2)c2ccc(C(=O)N[C@@H]3CCN(C)C3)cc12 [Example 238] | – |

Further lines, the compound ahead of its results:

| SMILES | Ki [1] | Ki [2] | also measured |
| --- | --- | --- | --- |
| NC(N)=NC(=O)c1ccc2c(c1)[nH]c(=O)n2Cc1ccc(F)cc1 [Example 10, N-[1-(4-fluoro-benzyl)-2-oxo-2,3-dihydro-1H-benzimidazole-5-carbonyl]-guanidine hydrochloride] | 2.8 nM | 2.7 nM | – |
| Cc1c(S(C)(=O)=O)c2cc(C(=O)N=C(N)N)ccc2n1Cc1ccc(F)cc1 [Example 102] | 0.36 nM | 0.12 nM | – |
| CC(=O)c1c(C)n(Cc2ccc(F)cc2)c2ccc(C(=O)N=C(N)N)cc12 [Example 104, 3-acetyl-N-(diaminomethylene)-1-(4-fluorobenzyl)-2-methyl-1H-indole-5-carboxamide] | 1.3 nM | 0.088 nM | – |
| Cc1nc2cc(C(=O)N=C(N)N)ccc2n1Cc1ccc(F)cc1 [Example 244, N-(diaminomethylene)-1-(4-fluorobenzyl)-2-methyl-1H-benzimidazol-5-carboxamide] | – | – | dose from which a significant suppressing action (number of feces excreted) is shown [3, 5]: ≥ 3 mg/kg |
| CC(C)c1cc(-c2ccc(F)c3ccccc23)nc(N)n1 [RS-127445, 2-amino-4-(4-fluoronaphth-1-yl)-6-isopropylpyrimidine, reference compound] | – | – | defecation-suppressing action [3]: did not show defecation-suppressing action; number of feces excreted, in comparison with the non-administration group [3]: Significant difference was not found; 5-HT2B receptor-selective by a factor [4]: ≥ 1000 times |
| CC1CCN(CC[C@H]2CCCN2S(=O)(=O)c2cccc(O)c2)CC1 [SB-269970, (R)-3-(2-(2-(4-methylpiperidin-1-yl)ethyl)pyrrolidine-1-sulfonyl)phenol, reference compound] | – | – | defecation-suppressing action [3]: did not show the defecation-suppressing action; number of feces excreted, in comparison with the non-administration group [3]: Significant difference was not found |
